Reference: ChEMBL document CHEMBL5661983, “The selective anaplastic lymphoma receptor tyrosine kinase inhibitor ASP3026 induces tumor regression and prolongs survival in non-small cell lung cancer model mice” (Mol Cancer Ther, 2014)
Activity calls are given as the source filed them. The rule behind the calls is not given here.

Columns and labels:
[1] = In vivo inhibition of ALK autophosphorylation in human NCI-H2228 cell xenografted NOD.CB17-Prkdcscid/J mouse assessed as phosphorylated ALK level at 10 mg/kg, po administered as single dose measured after 4 hrs by immunoblotting method relative to control; type: functional; design: scale not given: the % may be the effect or the level left
[2] = target: Tyrosine-protein kinase Lck (Homo sapiens, UniProt P06239)
[3] = target: T1, ALK tyrosine kinase receptor (Homo sapiens, UniProt Q9UM73); test: Inhibition of ALK in human NCI-H2228 cells assessed as reduction in ERK phosphorylation by measuring phosphorylated ERK level at 100 nmol/L measured after 4 hrs by Western blot analysis relative to control; type: cell-based; design: scale not given: the % may be the effect or the level left
Target sequence in this assay (Q9UM73 19-1620 limits assumed): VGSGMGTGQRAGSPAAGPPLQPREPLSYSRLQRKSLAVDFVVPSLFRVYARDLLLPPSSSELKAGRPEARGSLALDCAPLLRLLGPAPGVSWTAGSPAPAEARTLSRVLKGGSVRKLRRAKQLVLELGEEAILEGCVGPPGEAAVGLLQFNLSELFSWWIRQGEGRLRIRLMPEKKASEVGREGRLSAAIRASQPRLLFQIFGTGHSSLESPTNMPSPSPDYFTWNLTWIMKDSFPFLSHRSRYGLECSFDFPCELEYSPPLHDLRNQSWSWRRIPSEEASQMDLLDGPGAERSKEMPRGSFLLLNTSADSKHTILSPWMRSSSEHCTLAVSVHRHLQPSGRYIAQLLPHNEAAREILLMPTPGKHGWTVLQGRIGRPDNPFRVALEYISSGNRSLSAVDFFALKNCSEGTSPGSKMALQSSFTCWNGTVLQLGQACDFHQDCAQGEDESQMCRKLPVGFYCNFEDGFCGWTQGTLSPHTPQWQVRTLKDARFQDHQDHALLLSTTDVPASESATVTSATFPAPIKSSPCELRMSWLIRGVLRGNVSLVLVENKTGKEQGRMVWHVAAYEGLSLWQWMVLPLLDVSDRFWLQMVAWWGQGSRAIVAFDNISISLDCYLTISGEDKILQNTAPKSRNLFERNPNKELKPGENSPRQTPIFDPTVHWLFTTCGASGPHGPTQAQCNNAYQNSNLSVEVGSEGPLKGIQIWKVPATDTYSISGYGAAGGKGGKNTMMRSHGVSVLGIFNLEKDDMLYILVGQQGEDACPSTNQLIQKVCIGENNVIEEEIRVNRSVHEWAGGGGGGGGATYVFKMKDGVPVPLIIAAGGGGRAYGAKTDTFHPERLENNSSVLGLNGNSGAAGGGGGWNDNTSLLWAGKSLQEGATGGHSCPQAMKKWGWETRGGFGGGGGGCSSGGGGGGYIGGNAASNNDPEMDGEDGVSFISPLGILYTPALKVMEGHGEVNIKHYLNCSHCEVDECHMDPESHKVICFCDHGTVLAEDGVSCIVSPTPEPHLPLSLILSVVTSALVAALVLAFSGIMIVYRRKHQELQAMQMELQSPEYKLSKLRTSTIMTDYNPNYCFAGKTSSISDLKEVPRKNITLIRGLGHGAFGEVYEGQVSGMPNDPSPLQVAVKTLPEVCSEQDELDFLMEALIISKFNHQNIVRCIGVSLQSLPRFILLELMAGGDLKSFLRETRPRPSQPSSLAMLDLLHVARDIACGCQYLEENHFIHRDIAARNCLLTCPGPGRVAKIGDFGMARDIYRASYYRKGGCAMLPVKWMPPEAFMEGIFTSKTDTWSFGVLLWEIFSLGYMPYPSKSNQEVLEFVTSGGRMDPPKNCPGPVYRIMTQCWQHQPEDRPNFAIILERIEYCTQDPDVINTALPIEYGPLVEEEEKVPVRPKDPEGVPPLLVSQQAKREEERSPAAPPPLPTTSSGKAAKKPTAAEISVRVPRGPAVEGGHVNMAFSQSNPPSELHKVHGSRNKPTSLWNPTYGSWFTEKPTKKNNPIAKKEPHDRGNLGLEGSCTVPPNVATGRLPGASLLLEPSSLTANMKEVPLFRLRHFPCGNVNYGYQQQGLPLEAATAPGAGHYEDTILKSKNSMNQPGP

[4] = target: T1, ALK tyrosine kinase receptor; test: Inhibition of ALK in human NCI-H2228 cells assessed as reduction in AKT phosphorylation by measuring phosphorylated AKT level at 1000 nmol/L measured after 4 hrs by Western blot analysis relative to control; type: cell-based; design: scale not given: the % may be the effect or the level left
Target sequence in this assay (Q9UM73 19-1620 limits assumed): as above

[5] = Cmax in human NCI-H2228 cell xenografted NOD.CB17-Prkdcscid/J mouse tumor at 3 mg/kg/day for 5 days by HPLC-MS analysis; type: ADME, organism-based, Neoplasm; details: route po, time 5 day
[6] = test system: NCI-H2228; test: Antitumor activity against human NCI-H2228 cells xenografted in NOD.CB17-Prkdcscid/J mouse assessed as tumor regression at 10 mg/kg, po administered once daily for 2 weeks relative to control; type: functional
[7] = target: T1, ALK tyrosine kinase receptor; test: Inhibition of ALK in human NCI-H2228 cells assessed as reduction in ERK phosphorylation by measuring phosphorylated ERK level at 1000 nmol/L measured after 4 hrs by Western blot analysis relative to control; type: cell-based; design: scale not given: the % may be the effect or the level left
Target sequence in this assay (Q9UM73 19-1620 limits assumed): as above

[8] = target: Ephrin type-A receptor 2 (Homo sapiens, UniProt P29317)
[9] = test system: NCI-H2228; test: Antitumor activity against human NCI-H2228 cells xenografted in NOD.CB17-Prkdcscid/J mouse assessed as tumor growth inhibition at 3 mg/kg, po administered once daily for 2 weeks relative to control; type: functional; details: NCI-H2228, 336 h, read-out: TGI
[10] = test system: NCI-H2228; test: Antitumor activity against human NCI-H2228 cells xenografted in NOD.CB17-Prkdcscid/J mouse assessed as tumor growth inhibition at 10 mg/kg, po administered once daily for 2 weeks relative to control; type: functional; details: NCI-H2228, 336 h, read-out: TGI
[11] = test system: NCI-H2228-Luc; test: (§1) Antitumor activity against human NCI-H2228-Luc cells intrahepatically xenografted in NOD.CB17-Prkdcscid/J mouse assessed as reduction in tumor burden by measuring bioluminescence emission at 30 mg/kg, po administered once daily for 3 weeks starting from 14 days post-cell inoculation and measured on day 19 by bioluminescent imaging analysis (reference value: 3.3 x 10^8 photon/sec); type: functional; details: time 19 day
[12] = test system: NCI-H2228; test: Antitumor activity against human NCI-H2228 cells xenografted in NOD.CB17-Prkdcscid/J mouse assessed as tumor regression at 3 mg/kg, po administered once daily for 2 weeks relative to control; type: functional
[13] = in vivo; details: NOD.CB17-Prkdcscid/J, mouse, tumour, po, 1 mg/kg
[14] = in vivo; details: NOD.CB17-Prkdcscid/J, mouse, tumour, po, 3 mg/kg
[15] = target: T1, ALK tyrosine kinase receptor; test: Inhibition of ALK in human NCI-H2228 cells assessed as reduction in STAT3 phosphorylation by measuring phosphorylated STAT3 level at 10 nmol/L measured after 4 hrs by Western blot analysis relative to control; type: cell-based; design: scale not given: the % may be the effect or the level left
Target sequence in this assay (Q9UM73 19-1620 limits assumed): as above

[16] = AUC (0 to 24 hrs) in human NCI-H2228 cell xenografted NOD.CB17-Prkdcscid/J mouse plasma at 3 mg/kg/day for 5 days by HPLC-MS analysis; type: ADME, organism-based; details: route po, time 5 day
[17] = Cmax in human NCI-H2228 cell xenografted NOD.CB17-Prkdcscid/J mouse plasma at 10 mg/kg/day for 5 days by HPLC-MS analysis; type: ADME, organism-based; details: route po, time 5 day
[18] = target: EML4-ALK (Homo sapiens, UniProt Q9UM73, L1196M); type: cell-based, BaF3
EML4-ALK, sequence (Q9UM73 19-1620 L1196M limits assumed): as the sequence (Q9UM73 19-1620 limits assumed) above, with L1178M counted along it

[19] = target: Tyrosine-protein kinase receptor UFO (Homo sapiens, UniProt P30530)
Tyrosine-protein kinase receptor UFO, sequence (P30530 whole entry): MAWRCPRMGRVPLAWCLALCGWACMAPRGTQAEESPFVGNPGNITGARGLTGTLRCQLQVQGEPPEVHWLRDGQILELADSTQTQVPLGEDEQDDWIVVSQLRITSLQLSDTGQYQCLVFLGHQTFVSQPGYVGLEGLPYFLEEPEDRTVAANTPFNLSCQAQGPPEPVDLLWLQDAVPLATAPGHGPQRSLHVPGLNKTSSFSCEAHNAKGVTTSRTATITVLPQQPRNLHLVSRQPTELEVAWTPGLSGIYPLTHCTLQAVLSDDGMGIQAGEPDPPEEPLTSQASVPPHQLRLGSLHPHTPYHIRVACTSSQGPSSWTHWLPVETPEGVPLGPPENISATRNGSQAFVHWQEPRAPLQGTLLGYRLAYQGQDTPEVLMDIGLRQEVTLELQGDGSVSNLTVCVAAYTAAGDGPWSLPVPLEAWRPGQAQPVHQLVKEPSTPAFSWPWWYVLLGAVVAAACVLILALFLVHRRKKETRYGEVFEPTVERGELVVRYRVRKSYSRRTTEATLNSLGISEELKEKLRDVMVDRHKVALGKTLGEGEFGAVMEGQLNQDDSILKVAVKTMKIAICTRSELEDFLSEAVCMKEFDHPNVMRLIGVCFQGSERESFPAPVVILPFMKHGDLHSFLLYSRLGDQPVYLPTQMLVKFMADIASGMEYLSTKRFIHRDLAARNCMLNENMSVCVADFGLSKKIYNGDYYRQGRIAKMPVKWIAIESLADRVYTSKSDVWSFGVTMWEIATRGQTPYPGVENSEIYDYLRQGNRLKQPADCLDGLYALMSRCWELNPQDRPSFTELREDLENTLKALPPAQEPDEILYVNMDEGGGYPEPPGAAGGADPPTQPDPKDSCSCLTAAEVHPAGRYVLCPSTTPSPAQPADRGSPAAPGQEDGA

[20] = target: Macrophage-stimulating protein receptor (Homo sapiens, UniProt Q04912)
[21] = test system: NCI-H2228-Luc; test: as §1, with “14” for “19”; type: functional; details: time 14 day
[22] = target: ALK tyrosine kinase receptor (Homo sapiens, UniProt Q9UM73, F1174L)
ALK tyrosine kinase receptor (Homo sapiens, UniProt Q9UM73, F1174L), sequence (Q9UM73 19-1620 F1174L limits assumed): as the sequence (Q9UM73 19-1620 limits assumed) above, with F1156L counted along it

[23] = AUC (0 to 24 hrs) in human NCI-H2228 cell xenografted NOD.CB17-Prkdcscid/J mouse plasma at 1 mg/kg/day for 5 days by HPLC-MS analysis; type: ADME, organism-based; details: route po, time 5 day
[24] = Selectivity ratio of IC50 for inhibition of EML4-ALK L1196M mutant (unknown origin) expressed in mouse 3T3 cells assessed as growth inhibition to IC50 for Inhibition of EML4-ALK (unknown origin) expressed in mouse 3T3 cells assessed as growth inhibition; design: species or system Homo sapiens; details: condition non-small cell lung carcinoma
[25] = AUC (0 to 24 hrs) in human NCI-H2228 cell xenografted NOD.CB17-Prkdcscid/J mouse tumor at 10 mg/kg/day for 5 days by HPLC-MS analysis; type: ADME, organism-based, Neoplasm; details: in vivo, po, 120 h, time 5 day
[26] = target: T1, ALK tyrosine kinase receptor
[27] = test system: NCI-H2228; test: Potentiation of pemetrexed-induced antitumor activity against human NCI-H2228 cells xenografted in NOD.CB17-Prkdcscid/J mouse assessed as reduction in tumor volume at 10 mg/kg, po administered once daily for 5 days; type: functional, organism-based; details: time 5.0 day
[28] = target: Non-receptor tyrosine-protein kinase TNK1 (Homo sapiens, UniProt Q13470)
[29] = test system: NCI-H2228-Luc; test: Antitumor activity against human NCI-H2228-Luc cells intrapleurally xenografted in NOD.CB17-Prkdcscid/J mouse assessed as median survival time at 3 mg/kg, po administered once daily for 7 weeks starting from 14 days post-cell inoculation measured up to 90 days (reference value: 39 day); type: functional; details: time 90 day
[30] = target: Proto-oncogene tyrosine-protein kinase ROS (Homo sapiens, UniProt P08922)
Proto-oncogene tyrosine-protein kinase ROS, sequence (P08922 whole entry): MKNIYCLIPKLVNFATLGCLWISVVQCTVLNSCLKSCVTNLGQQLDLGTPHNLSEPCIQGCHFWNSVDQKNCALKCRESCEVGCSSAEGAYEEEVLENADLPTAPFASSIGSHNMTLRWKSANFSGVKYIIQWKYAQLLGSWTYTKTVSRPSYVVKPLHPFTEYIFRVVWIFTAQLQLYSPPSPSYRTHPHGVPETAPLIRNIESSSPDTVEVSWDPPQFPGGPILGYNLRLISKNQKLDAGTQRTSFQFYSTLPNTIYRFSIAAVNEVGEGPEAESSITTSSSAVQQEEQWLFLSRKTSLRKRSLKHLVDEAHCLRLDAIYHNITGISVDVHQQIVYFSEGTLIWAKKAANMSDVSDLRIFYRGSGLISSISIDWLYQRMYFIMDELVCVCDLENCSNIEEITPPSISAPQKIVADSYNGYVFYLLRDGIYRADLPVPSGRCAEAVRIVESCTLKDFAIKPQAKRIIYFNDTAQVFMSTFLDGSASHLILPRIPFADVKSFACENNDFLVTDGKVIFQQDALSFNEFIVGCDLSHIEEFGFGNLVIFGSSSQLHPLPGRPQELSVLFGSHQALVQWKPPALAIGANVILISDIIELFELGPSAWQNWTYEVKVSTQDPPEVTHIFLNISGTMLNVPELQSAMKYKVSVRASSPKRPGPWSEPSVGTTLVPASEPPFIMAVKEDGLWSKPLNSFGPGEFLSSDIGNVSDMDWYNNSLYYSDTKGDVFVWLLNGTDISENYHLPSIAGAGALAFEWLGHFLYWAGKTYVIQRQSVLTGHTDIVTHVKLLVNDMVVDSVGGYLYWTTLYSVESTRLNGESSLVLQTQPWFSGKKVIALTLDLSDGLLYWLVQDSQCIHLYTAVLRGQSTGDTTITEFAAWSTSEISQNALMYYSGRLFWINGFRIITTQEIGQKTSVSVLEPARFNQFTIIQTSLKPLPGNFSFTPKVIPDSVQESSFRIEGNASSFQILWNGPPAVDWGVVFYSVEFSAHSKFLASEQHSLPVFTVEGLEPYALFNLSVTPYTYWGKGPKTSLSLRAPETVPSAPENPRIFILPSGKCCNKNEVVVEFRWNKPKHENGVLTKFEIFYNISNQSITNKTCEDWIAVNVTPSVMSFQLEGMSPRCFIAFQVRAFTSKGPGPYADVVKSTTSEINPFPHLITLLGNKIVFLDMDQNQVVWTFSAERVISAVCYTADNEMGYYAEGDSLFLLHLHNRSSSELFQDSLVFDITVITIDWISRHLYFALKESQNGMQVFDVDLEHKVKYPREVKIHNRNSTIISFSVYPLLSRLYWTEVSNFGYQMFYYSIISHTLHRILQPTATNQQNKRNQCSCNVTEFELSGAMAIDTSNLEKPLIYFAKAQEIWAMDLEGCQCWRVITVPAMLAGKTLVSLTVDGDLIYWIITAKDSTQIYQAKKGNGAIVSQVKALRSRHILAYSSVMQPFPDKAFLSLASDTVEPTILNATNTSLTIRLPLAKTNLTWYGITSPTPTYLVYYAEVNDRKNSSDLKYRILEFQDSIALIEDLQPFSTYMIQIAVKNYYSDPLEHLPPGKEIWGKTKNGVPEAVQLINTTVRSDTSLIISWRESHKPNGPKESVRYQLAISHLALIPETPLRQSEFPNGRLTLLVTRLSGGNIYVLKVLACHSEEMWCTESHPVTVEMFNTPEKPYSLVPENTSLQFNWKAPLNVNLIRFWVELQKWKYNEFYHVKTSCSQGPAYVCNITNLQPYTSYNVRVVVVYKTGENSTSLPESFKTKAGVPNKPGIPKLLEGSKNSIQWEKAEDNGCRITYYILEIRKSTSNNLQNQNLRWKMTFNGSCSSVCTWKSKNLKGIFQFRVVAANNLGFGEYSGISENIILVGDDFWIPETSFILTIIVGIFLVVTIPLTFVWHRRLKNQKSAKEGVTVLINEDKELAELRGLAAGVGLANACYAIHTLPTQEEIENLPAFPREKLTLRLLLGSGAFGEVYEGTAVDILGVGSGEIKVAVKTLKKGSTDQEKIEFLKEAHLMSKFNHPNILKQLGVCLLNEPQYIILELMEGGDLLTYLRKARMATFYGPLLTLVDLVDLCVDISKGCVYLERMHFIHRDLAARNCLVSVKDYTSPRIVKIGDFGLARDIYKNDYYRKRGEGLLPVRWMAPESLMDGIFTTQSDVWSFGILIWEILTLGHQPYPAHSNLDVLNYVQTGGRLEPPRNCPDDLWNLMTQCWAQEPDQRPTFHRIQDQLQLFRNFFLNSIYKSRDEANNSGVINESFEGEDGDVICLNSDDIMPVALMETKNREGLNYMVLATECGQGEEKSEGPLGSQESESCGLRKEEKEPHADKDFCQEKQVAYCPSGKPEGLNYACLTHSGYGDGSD

[31] = test system: NCI-H2228; test: Antitumor activity against human NCI-H2228 cells xenografted in NOD.CB17-Prkdcscid/J mouse assessed as tumor regression at 1 mg/kg, po administered once daily for 2 weeks relative to control; type: functional
[32] = Cmax in human NCI-H2228 cell xenografted NOD.CB17-Prkdcscid/J mouse tumor at 1 mg/kg/day for 5 days by HPLC-MS analysis; type: ADME, organism-based, Neoplasm; details: route po, time 5 day
[33] = Toxicity in human NCI-H2228 cell xenografted NOD.CB17-Prkdcscid/J mouse assessed as change in body weight at 10 mg/kg, po administered once daily for 5 days in presence of pemetrexed; type: organism-based; details: in vivo, 120 h, time 5 day

With `COc1cc(N2CCC(N3CCN(C)CC3)CC2)ccc1Nc1ncnc(Nc2ccccc2S(=O)(=O)C(C)C)n1` [ASP-3026] the Activity [1] was ~20%, the IC50 [2] was > 0.1 µM and the Activity [3] was 54%. For the same compound, the Activity [4] was 20%, the Cmax [5] was 2270 ng/g and the Activity [6] was 45%. For the same compound, the Activity [7] was 36%, the IC50 [8] was > 1 µM and the inhibition in vivo at 3 mg/kg [9] was > 100%. For the same compound, the inhibition in vivo at 10 mg/kg [10] was > 100%, the Activity [11] was 7.7 10^6No_unit and the Activity [12] was 4%. It also gave a Kp at 120 h [13] of 22, a Kp at 120 h [14] of 19 and an Activity [15] of 88%. It also gave an AUC at 120 h [16] of 1820 ng·h/mL, a Cmax [17] of 508 ng/mL and an IC50 [18] of 0.032 µM. The IC50 [19] was > 0.1 µM, the IC50 [20] was > 1 µM and the Activity [21] was 4.2 10^6No_unit. The IC50 [22] was 0.01 µM, the AUC at 120 h [23] was 630 ng·h/mL and the “Ratio IC50” value [24] was 3.9. The AUC [25] was 121000 ng·h/g, the IC50 [26] was 0.0035 µM and the Activity [27] was “Active”. For the same compound, the IC50 [28] was 0.0268 µM, the MST [29] was 56.5 days and the IC50 [30] was 0.0089 µM. For the same compound, the Activity [31] was 0%, the Cmax [32] was 850 ng/g and the Activity [33] was “Non-Toxic”.
